Test results as given in patent US8134015B2, “Compound inhibiting in vivo phosphorous transport and medicine containing the same” (Kyowa Hakko Kirin Co., Ltd., priority 2003, dated 2012).
pIC50: −log10 of the molar value.

These compounds were tested against T1, rat NaPi-2b (Rattus norvegicus, UniProt Q9JJ09) (assay: Sodium-dependent phosphate uptake of Xenopus oocytes which expressed NaPi-2b (32P)). Settings: Xenopus oocytes expressing rat NaPi-2b, 32P radioactive phosphorus; read-out: IC50 (phosphate uptake inhibitory activity).
T1 construct: expressed in transfected cells; host or cells: Xenopus oocytes injected with cRNA
T1 sequence (Q9JJ09 1-695): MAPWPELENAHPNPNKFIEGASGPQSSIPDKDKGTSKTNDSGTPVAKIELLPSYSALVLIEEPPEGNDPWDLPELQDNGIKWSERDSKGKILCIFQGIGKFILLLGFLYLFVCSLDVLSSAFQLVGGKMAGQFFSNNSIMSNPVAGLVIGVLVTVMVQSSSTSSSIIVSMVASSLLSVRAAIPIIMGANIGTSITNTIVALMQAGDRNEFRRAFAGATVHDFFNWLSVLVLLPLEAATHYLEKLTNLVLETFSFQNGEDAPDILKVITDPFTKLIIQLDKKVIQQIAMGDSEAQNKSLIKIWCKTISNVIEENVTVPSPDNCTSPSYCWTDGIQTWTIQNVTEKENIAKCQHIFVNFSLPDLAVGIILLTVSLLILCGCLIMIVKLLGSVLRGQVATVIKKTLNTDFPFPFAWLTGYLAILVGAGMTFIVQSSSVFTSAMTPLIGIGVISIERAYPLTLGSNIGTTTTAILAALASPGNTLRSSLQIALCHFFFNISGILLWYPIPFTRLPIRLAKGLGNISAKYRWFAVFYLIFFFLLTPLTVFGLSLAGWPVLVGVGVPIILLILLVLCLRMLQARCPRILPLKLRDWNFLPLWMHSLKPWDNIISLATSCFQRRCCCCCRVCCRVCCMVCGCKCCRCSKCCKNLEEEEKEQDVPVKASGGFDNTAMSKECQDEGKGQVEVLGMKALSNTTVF
Format: cell-based
Method in brief: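 Percent inhibition at 300 μM and 100 μM comes from the same inhibition curve of 32P uptake. Assay used oocytes expressing rat NaPi-2b after 2 days of culture.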

SMILES	pIC50
CCN(CCO)Cc1ccc(C(=O)Nc2ccc(Cl)cc2C(=O)N/N=C/c2cccc(F)c2)cc1 [Compound 432, N-[4-Chloro-2-(3-fluoro-benzylidene-hydrazinocarbonyl)-phenyl]-4-{[ethyl-(2-hydroxy-ethyl)-amino]-methyl}-benzamide]	4.65
Cc1ccc(/C=N/NC(=O)c2cc(Cl)ccc2NC(=O)c2ccc(CN(C)CCO)cc2)cc1 [Compound 415, N-[4-Chloro-2-(4-methyl-benzylidene-hydrazinocarbonyl)-phenyl]-4-{[(2-hydroxy-ethyl)-methyl-amino]-methyl}-benzamide]	> 5.52
O=C(Nc1ccc(Cl)cc1C(=O)N/N=C/C=C/c1ccccc1)c1ccncc1 [Compound 349, N-[4-Chloro-2-(3-phenyl-allylidene-hydrazinocarbonyl)-phenyl]-isonicotinamide]	5.06
CCN(CC)CCN(C)Cc1ccc(C(=O)Nc2ccc(Br)cc2C(=O)NN=Cc2ccc(F)cc2)cc1 [Compound 287, N-[4-Bromo-2-(4-fluoro-benzylidene-hydrazinocarbonyl)-phenyl]-4-{[(2-diethylamino-ethyl)-methyl-amino]-methyl}-benzamide]	6.96
O=C(Nc1ccc(Cl)cc1C(=O)N/N=C/c1cccc(O)c1)c1cccc(CN(CCO)CCO)c1 [Compound 410, 3-{[Bis-(2-hydroxy-ethyl)-amino]-methyl}-N-[4-chloro-2-(3-hydroxy-benzylidene-hydrazinocarbonyl)-phenyl]-benzamide]	5.39
CCc1ccc(C(=O)Nc2ccc(Br)cc2C(=O)N/N=C/c2ccc(Cl)c(C(F)(F)F)c2)cc1 [Compound 183, N-[4-Bromo-2-(4-chloro-3-trifluoromethyl-benzylidene-hydrazinocarbonyl)-phenyl]-4-ethyl-benzamide]	> 5.52
CCN(CCO)Cc1ccc(C(=O)Nc2ccc(Cl)cc2C(=O)N/N=C/c2ccc(O)cc2)cc1 [Compound 441, N-[4-Chloro-2-(4-hydroxy-benzylidene-hydrazinocarbonyl)-phenyl]-4-{[ethyl-(2-hydroxy-ethyl)-amino]-methyl}-benzamide]	4.40
Cc1ccc(/C=N/NC(=O)c2cc(Br)ccc2NC(=O)c2cccc(CSc3nc[nH]n3)c2)cc1C [Compound 267, N-[4-Bromo-2-(3,4-dimethyl-benzylidene-hydrazinocarbonyl)-phenyl]-3-(1H-[1,2,4]triazol-3-ylsulfanylmethyl)-benzamide]	6.37
Cc1ccc(C)c(/C=N/NC(=O)c2ccccc2NC(=O)c2ccccc2F)c1 [Compound 46, N-[2-(2,5-Dimethyl-benzylidene-hydrazinocarbonyl)-phenyl]-2-fluoro-benzamide]	5.13
CCN(CC)CCN(C)Cc1cccc(C(=O)Nc2ccc(Cl)cc2C(=O)N/N=C/c2ccc(O)cc2)c1 [Compound 388, N-[4-Chloro-2-(4-hydroxy-benzylidene-hydrazinocarbonyl)-phenyl]-3-{[(2-diethylamino-ethyl)-methyl-amino]-methyl}-benzamide]	4.71
CCN(CC)CCN(C)Cc1cccc(C(=O)Nc2ccc(Cl)cc2C(=O)N/N=C/c2ccc(Cl)c(C(F)(F)F)c2)c1 [Compound 384, N-[4-Chloro-2-(4-chloro-3-trifluoromethyl-benzylidene-hydrazinocarbonyl)-phenyl]-3-{[(2-diethylamino-ethyl)-methyl-amino]-methyl}-benzamide]	6.60
Cc1cccc(/C=N/NC(=O)c2cc(Br)ccc2NC(=O)c2ccccn2)c1 [Compound 497, Pyridin-2-carboxylic acid [4-bromo-2-(3-methyl-benzylidene-hydrazinocarbonyl)-phenyl]-amide]	6.29
CCN(CC)CCN(C)Cc1ccc(C(=O)Nc2ccc(Br)cc2C(=O)N/N=C/c2cccc(C)c2)cc1 [Compound 286, N-[4-Bromo-2-(3-methyl-benzylidene-hydrazinocarbonyl)-phenyl]-4-{[(2-diethylamino-ethyl)-methyl-amino]-methyl}-benzamide]	6.24
Cc1ccc(/C=N/n2c(-c3cccc(CSCCO)c3)nc3ccc(Br)cc3c2=O)cc1C [Compound 697, 6-Bromo-3-[(3,4-dimethyl-benzylidene-)-amino]-2-[3-(2-hydroxy-ethylsulfanylmethyl)-phenyl]-3H-quinazolin-4-one]	> 5.52
COc1ccc(C(=O)Nc2ccccc2C(=O)N/N=C/c2cc(OC)c(OC)c(OC)c2)cc1OC [Compound 12, 3,4-Dimethoxy-N-[2-(3,4,5-trimethoxy-benzylidene-hydrazinocarbonyl)-phenyl]-benzamide]	5.35
COc1ccc(C(=O)Nc2ccccc2C(=O)N/N=C/c2ccsc2)cc1OC [Compound 24, 3,4-Dimethoxy-N-[2-(thiophen-3-ylmethylene-hydrazinocarbonyl)-phenyl]-benzamide]	4.68
CCOc1cc(/C=N/NC(=O)c2ccccc2NC(=O)c2ccc(OC)c(OC)c2)ccc1O [Compound 37, N-[2-(3-Ethoxy-4-hydroxy-benzylidene-hydrazinocarbonyl)-phenyl]-3,4-dimethoxy-benzamide]	4.87
COc1ccc(C(=O)Nc2ccccc2C(=O)N/N=C/c2ccc(F)cc2)cc1 [Compound 48, N-[2-(4-Fluoro-benzylidene-hydrazinocarbonyl)-phenyl]-4-methoxy-benzamide]	5.68
Cc1csc(NC(=O)c2cccc(CN3CCC(N4CCCCC4)CC3)c2)c1C(=O)N/N=C/c1ccc(Cl)c(C(F)(F)F)c1 [Compound 573, 3-[1,4′]Bipiperidinyl-1′-ylmethyl-N-[3-(4-chloro-3-trifluoromethyl-benzylidene-hydrazinocarbonyl)-4-methyl-thiophen-2-yl]-benzamide]	5.76
O=C(Nc1sc2c(c1C(=O)N/N=C/c1ccc(F)cc1)CCCC2)c1cccc(CSCCCO)c1 [Compound 606, N-[3-(4-Fluoro-benzylidene-hydrazinocarbonyl)-4,5,6,7-tetrahydro-benzo[b]thiophen-2-yl]-3-(3-hydroxy-propylsulfanylmethyl)-benzamide]	6.00
O=C(Nc1ccc(Cl)cc1C(=O)N/N=C/c1ccc(Cl)c(C(F)(F)F)c1)c1cccc(CN2CCC(N3CCCCC3)CC2)c1 [Compound 373, 3-[1,4′]Bipiperidinyl-1′-ylmethyl-N-[4-chloro-2-(4-chloro-3-trifluoromethyl-benzylidene-hydrazinocarbonyl)-phenyl]-benzamide]	5.77
CCN(CC)CCN(C)Cc1ccc(C(=O)Nc2ccc(Br)cc2C(=O)N/N=C/c2cccc(OC)c2)cc1 [Compound 291, N-[4-Bromo-2-(3-methoxy-benzylidene-hydrazinocarbonyl)-phenyl]-4-{[(2-diethylamino-ethyl)-methyl-amino]-methyl}-benzamide]	5.94
CCOc1ccc(C(=O)Nc2ccc(Br)cc2C(=O)N/N=C/c2ccc(C)c(C)c2)cc1 [Compound 504, N-[4-Bromo-2-(3,4-dimethyl-benzylidene-hydrazinocarbonyl)-phenyl]-4-ethoxy-benzamide]	4.72
O=C(Nc1ccc(Br)cc1C(=O)N/N=C/c1cccc(F)c1)c1ccccn1 [Compound 495, Pyridin-2-carboxylic acid[4-bromo-2-(3-fluoro-benzylidene-hydrazinocarbonyl)-phenyl]-amide]	6.46

Same assay, conditions: phosphate uptake, oocytes expressing rat NaPi-2b; 300 μM, determined from inhibition curve

SMILES	inhibition at 300 µM
O=C(Nc1ccc(Cl)cc1C(=O)N/N=C/c1cccc(F)c1)c1cnc2ccccc2n1 [Compound 1004, Quinoxaline-2-carboxylic acid [4-chloro-2-(3-fluoro-benzylidene-hydrazinocarbonyl)-phenyl]-amide]	34.2%
Cc1csc(C(=O)N/N=C/c2cccc(F)c2)c1NC(=O)c1cccc(CSCCCO)c1 [Compound 527, N-[2-(3-Fluoro-benzylidene-hydrazinocarbonyl)-4-methyl-thiophen-3-yl]-3-(3-hydroxy-propylsulfanylmethyl)-benzamide]	40.9%
CN(CCCNCc1ccc(C(=O)Nc2ccc(Br)cc2C(=O)N/N=C/c2cccc(F)c2)cc1)c1ccccc1 [Compound 760, N-[4-Bromo-2-(3-fluoro-benzylidene-hydrazinocarbonyl)-phenyl]-4-{[3-(methyl-phenyl-amino)-propylamino]-methyl}-benzamide]	73.3%
COCCOc1cc(NC(=O)c2cccc(CSCC(O)CO)c2)c(C(=O)N/N=C/c2ccc(C)cc2)cc1OCCOC (centres unmarked) [Compound 1014, N-[4,5-Bis-(2-methoxy-ethoxy)-2-(4-methyl-benzylidene-hydrazinocarbonyl)-phenyl]-3-(2,3-dihydroxy-propylsulfanylmethyl)-benzamide]	55.2%
O=C(Nc1ccc(Cl)cc1C(=O)N/N=C/c1cccc(F)c1)c1cccc(CN(CCO)CCO)c1 [Compound 549, 3-{[Bis-(2-hydroxy-ethyl)-amino]-methyl}-N-[4-chloro-2-(3-fluoro-benzylidene-hydrazinocarbonyl)-phenyl]-benzamide]	85.1%
